Test [1] concerns the target tryptophanase of Bacteroides thetaiotamicron (Bacteroides thetaiotaomicron, UniProt Q8A7N2). Briefly: Tryptophanase enzyme inhibitory activity (LDH-coupled NADH loss). The conditions noted are these: L-tryptophan 10 mM, 37° C., absorbance at 340 nm; read-out: Bacteroides Activity of Inhibiting Tryptophanase (IC50). Type of test: biochemical. As to the method: Tryptophanase inhibitory activity was evaluated by a method using lactate dehydrogenase (LDH). The reaction time-dependent reduction in NADH conjugated with the enzymatic reaction, with LDH, of pyruvic acid produced through the enzymatic reaction of L-tryptophan as a substrate with tryptophanase, was measured with a spectrophotometer (Phillips-R S et al., Biochemistry, 23, 6228-6234 (1984)). Enzyme inhibitory activity obtained without adding a test compound (by adding DMSO alone) in the presence of tryptophanase was used as a control. As the enzyme, tryptophanase of Bacteroides thetaiotamicron (Genbank accession number: HC914434.1) was used. A test compound solution was prepared by dissolving each test compound in DMSO in an arbitrary concentration (from 30 mM to 30 nM at 10-fold common ratio). LDH, NADH and L-tryptophan were prepared, using distilled water, respectively to concentrations of 80 units/mL, 10 mM and […]. Bacteroides tryptophanase was prepared to 30 mg/mL. A potassium phosphate buffer was used as the buffer. [table] A reaction solution A was dispensed at 284.8 μL per well into a 96-well plate, and the test compound solution was added at 3.2 μL per well to obtain a final concentration of 1/100 (reaction solution B). The reaction solution B was incubated at 37° C. for 30 minutes, L-tryptophan was added thereto at 32 μL per well to obtain a final concentration of 10 mM (reaction solution C), and the enzyme reaction was performed at 37° C. over 30 minutes with absorbance at 340 nm measured for monitoring the NADH loss. Based on the NADH loss, the tryptophanase inhibitory activity of the compound was evaluated. Besides, the following compounds were similarly tested instead of the test compound.

The subject of the next test is Bacteroides. Briefly: Indole production suppressing effect in viable bacteria. Type of test: cell-based. The note with it: indole concentration in culture supernatant, read-out: Eroides Activity of Inhibiting Indole Production(IC50). As to the method: The effect of a tryptophanase inhibitory compound to suppress indole production from a viable bacterium can be evaluated through the following operation. When E. coli (Escherichia Coli) is used as a strain known to produce indole, the strain is cultured in an LB medium at 37° C. for 12 to 18 hours under anaerobic conditions, and then, suspended in an assay medium (5 mM L-Tryptophan/PBS(+)/25 mM HEPES (pH8)) in such a manner as to obtain O.D. of about 0.3. When bacteroides is used, the strain is cultured in a modified GAM medium at 37° C. for 12 to 18 hours under anaerobic conditions, and then suspended in an assay medium (5 mM L-Tryptophan/PBS(+)/25 mM HEPES (pH8)) in such a manner as to obtain O.D. of about 1.1. The thus obtained viable bacterial suspension prepared to have a final concentration of a compound of 1 μM to 10 mM is dispensed at 200 μL per well into a 96-well plate and cultured at 37° C. for 2 to 4 hours under anaerobic conditions, and O.D., an ATP concentration (that can be quantitatively determined by using BacTiter-Glo (Promega Corporation)) and an indole concentration in the culture supernatant (that can be quantitatively determined by utilizing Ehrlich reaction) are measured. The effect of the tryptophanase inhibitory compound to suppress indole production from a viable bacterium can be evaluated depending on the degree of lowering of the indole concentration in the culture supernatant. It can be checked whether or not the effect is derived from a function other than tryptophanase inhibition, such as a bactericidal function or a bacterial growth inhibitory function, depending on lowering of the O.D. or reduction in the ATP concentration or by performing a generally practiced antibacterial activity test (a MIC (minimum growth inhibition concentration) test) using levofloxacin or the like as a positive control. The activities of inhibiting indole production of the compounds of the respective examples shown in Table 11 were measured by the above-described method using Bacteroides to evaluate the effect of inhibiting indole production.

The test system of test [2] is indoxyl sulfate concentration in the plasma. Put plainly: Effect of reducing indoxyl sulfate concentration in the plasma of mice. The test is classed as in vivo, male BALB/c mouse. The conditions noted are these: oral. How it is done:
An effect of a tryptophanase inhibitory compound to reduce an indoxyl sulfate concentration in the plasma of a mouse can be evaluated through the following operation.
After fasting a male BALB/c mouse overnight, a tryptophanase compound dissolved or suspended at a concentration of 0.01 to 10 mg/mL in a 0.5% methylcellulose (MC) solution used as a solvent and a 0.5% MC solution are orally administered by gavage at a dose of 10 mL/kg respectively to a test compound group and to a solvent control group. When 30 minutes have elapsed after the administration of the test compound or the solvent, L-tryptophan, that is, a substrate of tryptophanase, is orally administered by gavage at a dose of 1 to 3 g/kg. The L-tryptophan is suspended in a 0.5% tragacanth solution. For 12 hours after the administration of the L-tryptophan, blood is collected over time from a tail vein by using a hematocrit tube. The thus obtained blood is centrifuged at 11,000 rpm for 5 minutes to collect plasma, and the indoxyl sulfate concentration in the plasma is measured singly by liquid chromatography (fluorescence detection) or its combination with a mass spectrometer used subsequently. The indoxyl sulfate concentration in the plasma of the test compound group against the indoxyl sulfate concentration in the plasma of the solvent control group is calculated as, for example, a ratio of the area under a curve of the indoxyl sulfate concentration, and thus, the efficacy of each compound in a living body can be compared.
The indoxyl sulfate concentrations in plasma obtained by using the compounds of the respective examples shown in Table 12 below were measured by the above-described method to evaluate the effect of reducing indoxyl sulfate concentration.

Like-named read-outs stand apart in the source and are kept apart here. Some results are limits rather than exact numbers.

Chain of tryptophanase of Bacteroides thetaiotamicron (Q8A7N2 entry or part of it, change not shown): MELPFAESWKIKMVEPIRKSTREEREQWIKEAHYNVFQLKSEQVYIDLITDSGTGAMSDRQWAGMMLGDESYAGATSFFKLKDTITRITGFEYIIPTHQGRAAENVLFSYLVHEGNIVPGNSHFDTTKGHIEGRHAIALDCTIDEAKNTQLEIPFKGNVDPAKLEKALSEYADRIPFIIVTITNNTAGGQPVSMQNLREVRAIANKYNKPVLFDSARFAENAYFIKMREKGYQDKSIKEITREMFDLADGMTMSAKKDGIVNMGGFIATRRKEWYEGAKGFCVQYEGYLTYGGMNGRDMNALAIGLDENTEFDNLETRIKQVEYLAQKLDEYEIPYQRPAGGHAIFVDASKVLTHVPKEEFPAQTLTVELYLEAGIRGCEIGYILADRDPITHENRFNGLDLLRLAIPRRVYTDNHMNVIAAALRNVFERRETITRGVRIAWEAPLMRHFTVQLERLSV

Regarding `CCC(NC(=O)Nc1cccc(C#N)c1)(C(=O)O)C1CC1` (single isomer, unassigned) [(+) Isomer Compound of Example 33, (+)-2-{[(3-Cyanophenyl)carbamoyl]amino}-2-cyclopropylbutanoic acid], the IC50 in test [1] is 0.6 µM; in the test with Bacteroides it was less than 3 µM. Further, the “Indoxyl Sulfate Reduction Effect in Male BALB/c Mouse Plasma (Indoxyl sulfate reduction effect in plasma 6 hours after administering L-tryptophan: ED75−, mg/kg)” value (from here on “Indoxyl Sulfate Reduction Effect”) in test [2] came to 1 mg/kg.
Turning to `CC[C@@](NC(=O)Nc1cccc(C#N)c1)(C(=O)O)C1CC1` [(−) Isomer Compound of Example 33, (−)-2-{[(3-cyanophenyl)carbamoyl]amino}-2-cyclopropylbutanoic acid], the results for the IC50 (in test [1]; in the test on Bacteroides) were 7.7 µM and 9 µM, respectively. Besides, the “Indoxyl Sulfate Reduction Effect” value in test [2] is more than 1 mg/kg.
In the case of `CCC(CC)(NC(=O)Nc1ccccc1)C(=O)O` [Compound A, 2-ethyl-2-[(phenylcarbamoyl)amino]butanoic acid], the IC50 was 20 µM in test [1] and 8 µM in the test with Bacteroides (Bacteroides). Moreover, in test [2], the “Indoxyl Sulfate Reduction Effect” value was 1 mg/kg.
In the same order, the values of `CCC(CC)(NC(=O)Nc1cccc(Cl)c1)C(=O)O` [Compound B, 2-{[(3-chlorophenyl)carbamoyl]amino}-2-ethylbutanoic acid] are 7.4 µM, less than 3 µM and more than 1 mg/kg.
Consider `CCC(CC)(NC(=O)Nc1ccc(Cl)cc1)C(=O)O` [Compound C, 2-{[(4-chlorophenyl)carbamoyl]amino}-2-ethylbutanoic acid], for which the half-inhibitory concentration (IC50) in test [1] turned out to be 16 µM; in the test on Bacteroides (Bacteroides), 6 µM. Further, the “Indoxyl Sulfate Reduction Effect” value in test [2] is recorded as more than 1 mg/kg.
On the same counts, the results for `CCC(CC)(NC(=O)Nc1ccc(F)cc1)C(=O)O` [Compound D, 2-ethyl-2-{[(4-fluorophenyl)carbamoyl]amino}butanoic acid] are 38.1 µM, 11 µM and 1 mg/kg.
As to `CCC(CC)(NC(=O)Nc1cccc(F)c1)C(=O)O` [Compound E, 2-ethyl-2-{[(3-fluorophenyl)carbamoyl]amino}butanoic acid], the IC50 in test [1] turned out to be 18.9 µM; in the test on Bacteroides (Bacteroides), 7 µM. The “Indoxyl Sulfate Reduction Effect” value in test [2] is given as more than 1 mg/kg.
On the same counts, the results for `CCC(CC)(NC(=O)Nc1cccc(C#N)c1)C(=O)O` [Compound F, 2-{[(3-cyanophenyl)carbamoyl]amino}-2-ethylbutanoic acid] are 16.5 µM, 12 µM and 1 mg/kg.
In the case of `CCC(CC)(NC(=O)Nc1ccc(CC#N)cc1)C(=O)O` [Compound G, 2-({[4-(cyanomethyl)phenyl]carbamoyl}amino)-2-ethylbutanoic acid], the concentration for half-maximal inhibition (IC50) amounted to 4.7 µM in test [1] and 8 µM in the test on Bacteroides (Bacteroides). Also, in test [2], the “Indoxyl Sulfate Reduction Effect” value was 1 mg/kg.
In the case of `CCC(CC)(NC(=O)Nc1ccsc1)C(=O)O` [Compound H, 2-ethyl-2-[(thiophen-3-ylcarbamoyl)amino]butanoic acid], the IC50 amounted to 34.1 µM in test [1] and 11 µM in the test on Bacteroides (Bacteroides). For the same compound, the “Indoxyl Sulfate Reduction Effect” value in test [2] is recorded as 1 mg/kg.
Turning to `CC[C@@](C)(NC(=O)Nc1ccc(OC(F)F)cc1)C(=O)O` [Example 8, (−)-N-{[4-(Difluoromethoxy)phenyl]carbamoyl}-D-isovaline], the IC50 amounted to 12.8 µM in test [1] and 7 µM with Bacteroides (Bacteroides). Further, the “Indoxyl Sulfate Reduction Effect” value in test [2] is listed as 1 mg/kg.
On to `CC[C@@](C)(NC(=O)Nc1ccc(OC(F)F)c(F)c1)C(=O)O` [Example 15, (−)-N-{[4-(Difluoromethoxy)-3-fluorophenyl]carbamoyl}-D-isovaline], for which the values for the IC50 (in test [1]; in the test on Bacteroides (Bacteroides)) were 13.5 µM and 14 µM, respectively. For the same compound, in test [2], the “Indoxyl Sulfate Reduction Effect” value was found to be 1 mg/kg.
Consider `CC[C@@](C)(NC(=O)Nc1ccc(Cl)cc1)C(=O)O` [Example 25, (−)-N-[(4-Chlorophenyl)carbamoyl]-D-isovaline], for which the values for the IC50 (in test [1]; with Bacteroides (Bacteroides)) were 26.8 µM and 23 µM, respectively. Moreover, the “Indoxyl Sulfate Reduction Effect” value in test [2] is 1 mg/kg.
`CCC(CC)(NC(=O)Nc1csc(Cl)c1)C(=O)O` [Example 27, 2-{[(5-Chlorothiophen-3-yl)carbamoyl]amino}-2-ethylbutanoic acid]: the figures for the IC50 (in test [1]; in the test with Bacteroides (Bacteroides)) were 6 µM and 5 µM, respectively. In addition, the “Indoxyl Sulfate Reduction Effect” value in test [2] came to 1 mg/kg.
For `CC[C@@](C)(NC(=O)Nc1ccc(Br)cc1)C(=O)O` [Example 30, (−)-N-[(4-Bromophenyl)carbamoyl]-D-isovaline], the results for the IC50 (in test [1]; in the test on Bacteroides (Bacteroides)) were 22.1 µM and 14 µM, respectively. Moreover, the “Indoxyl Sulfate Reduction Effect” value in test [2] worked out at 1 mg/kg.
For the compound `CC[C@@](C)(NC(=O)Nc1ccc(I)cc1)C(=O)O` [Example 31, (−)-N-[(4-Iodophenyl)carbamoyl]-D-isovaline], the half-inhibitory concentration (IC50) was 7.9 µM in test [1] and less than 3 µM with Bacteroides (Bacteroides). Besides, the “Indoxyl Sulfate Reduction Effect” value in test [2] was determined as 1 mg/kg.

These data come from patent US10968169B2, “Urea derivative” (Daiichi Sankyo Company, Limited, priority 2016, dated 2021).
